“Also recorded” adds a separate entry of the source.
Columns and labels:
[1] = system: Kir2.4 channels; assay: Whole-cell patch-clamp of Kir2.4 currents in transfected HEK293T cells under acute hypoxia; type: cell-based, human
Protocol: Hypoxia diminishes Kir2.4 activity in a TAK981 sensitive manner. HEK293T cells were transiently transfected with plasmid DNA for Kir2.4 channels. Inward rectifying currents were elicited in response to a high [K]^+ (140 mM) buffer using a −80 mV to +80 mV ramp protocol. Following stabilization in the high K^+ buffer, the cells were subjected to a hypoxic (2% O2) perfusate. Acute hypoxia evoked a ˜30% decrease in Kir2.4 currents. Recordings were terminated with the perfusion of 10 mM Ba^2+ (FIGS. 3A, 3B).
Next, we repeated the experiment using that were preincubated with 100 nM TAK981 for one hour. We observed that the hypoxic decrease in Kir2.4 currents was abolished in cells pre-treated with TAK981 (FIGS. 3C, 3D).

[2] = target: T1, SUMO activating enzyme (SAE) (Homo sapiens, UniProt Q9UBE0+Q9UBT2); details: cited from earlier work
T1 sequence (Q9UBE0 1-346): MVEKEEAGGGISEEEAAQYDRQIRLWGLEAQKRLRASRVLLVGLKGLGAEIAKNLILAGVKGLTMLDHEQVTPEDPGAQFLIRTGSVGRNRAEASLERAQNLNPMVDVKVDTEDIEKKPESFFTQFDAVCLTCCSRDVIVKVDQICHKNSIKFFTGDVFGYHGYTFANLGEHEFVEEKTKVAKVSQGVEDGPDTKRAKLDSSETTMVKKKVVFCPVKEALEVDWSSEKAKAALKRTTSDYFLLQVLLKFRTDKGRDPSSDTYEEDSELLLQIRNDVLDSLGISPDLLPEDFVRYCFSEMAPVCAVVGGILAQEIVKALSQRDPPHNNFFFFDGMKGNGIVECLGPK
T1 sequence (Q9UBT2 1-640): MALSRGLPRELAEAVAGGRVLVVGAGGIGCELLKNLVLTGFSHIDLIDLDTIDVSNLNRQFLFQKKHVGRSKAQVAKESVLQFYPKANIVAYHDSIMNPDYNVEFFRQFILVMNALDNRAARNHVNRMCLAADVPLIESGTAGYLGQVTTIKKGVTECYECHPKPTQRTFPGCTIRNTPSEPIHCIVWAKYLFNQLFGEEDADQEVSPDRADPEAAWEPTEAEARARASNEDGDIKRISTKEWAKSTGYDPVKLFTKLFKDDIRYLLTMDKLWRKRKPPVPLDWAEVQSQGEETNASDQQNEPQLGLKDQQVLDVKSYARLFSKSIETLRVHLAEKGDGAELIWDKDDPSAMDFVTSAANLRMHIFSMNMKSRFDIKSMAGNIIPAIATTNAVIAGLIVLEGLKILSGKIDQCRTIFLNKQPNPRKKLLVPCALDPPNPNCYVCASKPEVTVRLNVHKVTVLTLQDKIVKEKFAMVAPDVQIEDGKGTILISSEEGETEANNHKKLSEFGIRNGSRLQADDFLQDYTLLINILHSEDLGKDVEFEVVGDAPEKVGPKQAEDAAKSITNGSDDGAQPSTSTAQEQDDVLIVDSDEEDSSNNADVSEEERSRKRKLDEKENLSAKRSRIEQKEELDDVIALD

Cc1sc(C(=O)c2cncnc2N[C@@H]2C[C@H](COS(N)(=O)=O)[C@@H](O)C2)cc1[C@@H]1NCCc2ccc(Cl)cc21 [TAK981, Subasumstat]
effect on hypoxic decrease in Kir2.4 currents ([1]; preincubated with 100 nM for one hour, 2% O2): abolished; also recorded: precludes hypoxic inhibition of Kir2 currents | tolerability of pretreatment in cells ([1]; pretreating cells): tolerated by the cells | SAE / SUMO E1 inhibition [2]: nM-inhibitor | selectivity [2]: highly selective

— US20240358731A1, “SUMO PATHWAY AS AN OXYGEN SENSOR RELEVANT TO THE PATHOPHYSIOLOGY OF PULMONARY ARTERY HYPERTENSION AND CARDIAC ARRHYTHMIA” (Northeastern University, priority 2023, published 2024)
